pIC50: −log10 of the molar value.

Usually pIC50 stands for the negative decadic logarithm of the IC50, by convention in mol/L. Low values mean a high IC50, high ones a low IC50.

Chain of hMAT2A (P31153 whole entry): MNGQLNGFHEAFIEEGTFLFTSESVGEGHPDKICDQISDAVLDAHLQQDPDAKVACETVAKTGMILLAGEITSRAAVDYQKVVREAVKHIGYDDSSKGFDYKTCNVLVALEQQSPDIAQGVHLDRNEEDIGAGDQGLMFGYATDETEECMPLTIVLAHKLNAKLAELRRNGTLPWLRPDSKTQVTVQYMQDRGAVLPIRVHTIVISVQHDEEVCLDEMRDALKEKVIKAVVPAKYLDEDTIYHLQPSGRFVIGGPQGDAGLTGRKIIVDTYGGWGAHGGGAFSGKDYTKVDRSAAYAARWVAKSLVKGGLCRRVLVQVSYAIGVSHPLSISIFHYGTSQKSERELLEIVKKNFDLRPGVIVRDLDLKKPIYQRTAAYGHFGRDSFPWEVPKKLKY

The target of the first assay is hMAT2A (Homo sapiens (Human), UniProt P31153). Kind of assay: Phosphate Sensor Fluorescence Assay (MAT2A enzyme inhibition). The class given is biochemical. Conditions: L-methionine 500 uM, ATP 500 uM, class symbols. The method in brief:
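Recombinant MAT2A preincubated 15 min at room temperature with compound, then reacted 1 h at room temperature with 500 uM L-methionine and 500 uM ATP in Tris pH 7.5 buffer containing PNP/7-MEG.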
For `Cc1nc(=O)n(-c2ccccc2)c2cc(Cl)ccc12` [Example 242, 7-chloro-4-methyl-1-phenylhydro-quinazolin-2-one], the negative logarithm of the IC50 (pIC50) was 6.00 to 6.30.

Molecule `CN(C)c1nc(=O)n(-c2ccccc2Cl)c2nc(C(F)(F)F)ccc12` [Example 244, 1-(2-chlorophenyl)-4-(dimethylamino)-7-(trifluoromethyl)pyrido[2,3-d]-pyrimidin-2(1H)-one] gave a negative logarithm of the IC50 (pIC50) greater than 6.70.

Turning to `O=c1nc(NC2CC3(CCC3)C2)c2ccc(C(F)(F)F)nc2n1-c1ccccc1Cl` [Example 245, 1-(2-chlorophenyl)-4-(spiro[3.3]heptan-2-ylamino)-7-(trifluoromethyl)pyrido-[2,3-d]pyrimidin-2(1H)-one], the pIC50 is greater than 6.70.

Molecule `O=c1nc(NCC2CC2)c2ccc(C(F)(F)F)nc2n1-c1ccccc1Cl` [Example 246] had a pIC50 greater than 6.70.

On to `O=c1nc(NCCCO)c2ccc(C(F)(F)F)nc2n1-c1ccccc1Cl` [Example 247, 1-(2-chlorophenyl)-4-[(3-hydroxy-propyl)amino]-7-(trifluoromethyl)-pyrido[2,3-d]pyrimidin-2(1H)-one], for which the pIC50 was greater than 6.70.

Turning to `COCCCNc1nc(=O)n(-c2ccccc2Cl)c2nc(C(F)(F)F)ccc12` [Example 248, 1-(2-chlorophenyl)-4-[(3-methoxy-propyl)amino]-7-(trifluoromethyl)-pyrido[2,3-d]pyrimidin-2(1H)-one], the negative logarithm of the IC50 (pIC50) was greater than 6.70.

Molecule `O=c1nc(N2CC[C@@H](O)C2)c2ccc(Cl)cc2n1-c1ccc2nccn2c1` [Example 250, 4-((3R)-3-hydroxypyrrolidin-1-yl)-7-chloro-1-(4-hydroimidazo[1,2-a]pyridin-6-yl)-hydroquinazolin-2-one] had a pIC50 of 6.00 to 6.30.

The molecule `CNc1nc(=O)n(-c2ccc3nccn3c2)c2cc(Cl)ccc12` [Example 251, 7-chloro-1-(4-hydroimidazo[1,2-a]-pyridin-6-yl)-4-(methylamino)hydro-quinazolin-2-one] showed a pIC50 of 5.00 to 6.00.

The molecule `O=c1[nH]c(=O)n(-c2cccc3[nH]ncc23)c2cc(Cl)ccc12` [Example 254, 1-(1H-indazol-4-yl)-7-chloro-1,3-dihydroquinazoline-2,4-dione] gave a pIC50 greater than 6.70.

For the molecule `O=c1nc(Nc2ccccn2)c2ccc(C(F)(F)F)nc2n1-c1ccccc1Cl` [Example 256, 1-(2-chlorophenyl)-4-(2-pyridylamino)-7-(trifluoromethyl)pyrido[2,3-d]-pyrimidin-2(1H)-one], the negative logarithm of the IC50 (pIC50) is greater than 6.70.

Take `Cn1ccc(CNc2nc(=O)n(-c3ccccc3Cl)c3nc(C(F)(F)F)ccc23)n1` [Example 257, 1-(2-chlorophenyl)-4-{[(1-methyl-pyrazol-3-yl)methyl]amino}-7-(trifluoro-methyl)-pyrido[2,3-d]pyrimidin-2(1H)-one]: the pIC50 is greater than 6.70.

Turning to `CC(C)Nc1nc(=O)n(-c2ccccc2Cl)c2nc(C(F)(F)F)ccc12` [Example 258, 1-(2-chlorophenyl)-4-[(methylethyl)-amino]-7-(trifluoromethyl)pyrido[2,3-d]-pyrimidin-2(1H)-one], the negative-log IC50 (pIC50) was greater than 6.70.

Regarding `CC(C)(C)Nc1nc(=O)n(-c2ccccc2Cl)c2nc(C(F)(F)F)ccc12` [Example 259, 4-[(tert-butyl)amino]-1-(2-chloro-phenyl)-7-(trifluoromethyl)pyrido-[2,3-d]pyrimidin-2(1H)-one], the negative-log IC50 (pIC50) was greater than 6.70.

For `CNc1nc(=O)n(-c2ncccc2C)c2nc(C(F)(F)F)ccc12` [Example 260, 1-(3-methyl(2-pyridyl))-4-(methyl-amino)-7-(trifluoromethyl)pyrido[2,3-d]-pyrimidin-2(1H)-one], the pIC50 was greater than 6.70.

`CNc1nc(=O)n(-c2ncccc2Cl)c2nc(C(F)(F)F)ccc12` [Example 261, 1-(3-chloro(2-pyridyl))-4-(methyl-amino)-7-(trifluoromethyl)pyrido[2,3-d]-pyrimidin-2(1H)-one] showed a negative-log IC50 (pIC50) greater than 6.70.

Regarding `CNc1nc(=O)n(Cc2c[nH]cn2)c2cc(Cl)ccc12` [Example 262, 7-chloro-1-(imidazol-4-ylmethyl)-4-(methylamino)hydroquinazolin-2-one], the pIC50 is greater than 6.70.

Consider `Cc1ncccc1-n1c(=O)nc(N)c2ccc(C(F)(F)F)nc21` [Example 263], for which the pIC50 is greater than 6.70.

As to `CS(=O)(=O)CCNc1nc(=O)n(-c2ccccc2Cl)c2nc(C(F)(F)F)ccc12` [Example 264, 1-(2-chlorophenyl)-4-{[2-(methyl-sulfonyl)ethyl]amino}-7-(trifluoro-methyl)pyrido [2,3-d]pyrimidin-2 (1H)-one], the negative logarithm of the IC50 (pIC50) is greater than 6.70.

Regarding `O=c1nc(NCC2(CO)CC2)c2ccc(C(F)(F)F)nc2n1-c1ccccc1Cl` [Example 265], the pIC50 is greater than 6.70.

Regarding `CN(C)CCCNc1nc(=O)n(-c2ccccc2Cl)c2nc(C(F)(F)F)ccc12` [Example 266, 4-{[3-(dimethylamino)propyl]amino}-1-(2-ch1orophenyl)-7-(trifluoromethyl)-pyrido[2,3-d]pyrimidin-2(1H)-one], the pIC50 is 5.00 to 6.00.

`CN(C)CCNc1nc(=O)n(-c2ccccc2Cl)c2nc(C(F)(F)F)ccc12` [Example 267, 4-{[2-(dimethylamino)ethyl]amino}-1-(2-chlorophenyl)-7-(trifluoromethyl)-pyrido[2,3-d]pyrimidin-2(1H)-one] showed a negative-log IC50 (pIC50) of 5.00 to 6.00.

As to `C[C@]1(O)C[C@@H](Nc2nc(=O)n(-c3ccccc3Cl)c3nc(C(F)(F)F)ccc23)C1` [Example 268, 1-(2-chlorophenyl)-4-(((1s,3s)-3-hydroxy-3-methylcyclobutyl)amino)-7-(trifluoromethyl)pyrido[2,3-d]pyrimidin-2(1H)-one], the negative logarithm of the IC50 (pIC50) was greater than 6.70.

Regarding `C[C@]1(Nc2nc(=O)n(-c3ccccc3Cl)c3nc(C(F)(F)F)ccc23)C[C@@H](O)C1` [Example 269, 1-(2-chlorophenyl)-4-(((1s,3s)-3-hydroxy-1-methylcyclobutyl)amino)-7-(trifluoromethyl)pyrido[2,3-d]pyrimidin-2(1H)-one], the negative logarithm of the IC50 (pIC50) is greater than 6.70.

`CO[C@H]1C[C@@H](Nc2nc(=O)n(-c3ccccc3Cl)c3nc(C(F)(F)F)ccc23)C1` [Example 270, 1-(2-chlorophenyl)-4-(((1s,3s)-3-methoxycyclobutyl)amino)-7-(trifluoro-methyl)pyrido[2,3-d]pyrimidin-2(1H)-one] showed a negative-log IC50 (pIC50) greater than 6.70.

The assay is the same for the next values; noted with them: L-methionine 500 uM, ATP 500 uM, numeric bound.
Consider `CNc1nc(=O)n(-c2ccccc2)c2cc(Cl)nnc12` [Example 243, 3-chloro-8-(methylamino)-5-phenyl-5-hydropyrimidino[5,4-c]pyridazin-6-one], for which the pIC50 is less than 5.00.

In turn, `O=c1nc(NCC(F)F)c2ccc(Cl)cc2n1-c1ccc2nccn2c1` [Example 249, 4-[(2,2-difluoroethyl)amino]-7-chloro-1-(4-hydroimidazo[1,2-a]pyridin-6-yl)-hydroquinazolin-2-one] showed a pIC50 of less than 5.00.

Regarding `Nc1nc(=O)n(-c2ccc3nccn3c2)c2cc(Cl)ccc12` [Example 252, 4-amino-7-chloro-1-(4-hydroimidazo-[1,2-a]pyridin-6-yl)hydroquinazolin-2-one], the pIC50 was less than 5.00.

`O=c1[nH]c(=O)n(-c2nc3ccccc3s2)c2cc(Cl)ccc12` [Example 253, 1-benzothiazol-2-yl-7-chloro-1,3-dihydroquinazoline-2,4-dione]: the negative logarithm of the IC50 (pIC50) was less than 5.00.

The values are drawn from patent US11046691B1 (IDEAYA BIOSCIENCES, INC., priority 2018, dated 2021).
